According to PubChem BioAssay (NCI):
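Following 48 hours of exposure in 96-well plates, responses at five concentrations were used to interpolate endpoints linearly. GI50: concentration for 50% inhibition of growth. Definition used: TGI = concentration required for complete inhibition of growth.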

Key:
Experiment in all cases: DTP human tumour cell line panel, 48 h
CAKI-1 renal = test system: CAKI-1 renal
NCI-H23 lung = test system: NCI-H23 lung
UACC-257 melanoma = test system: UACC-257 melanoma
SW-620 colon = test system: SW-620 colon
RXF 393 renal = test system: RXF 393 renal
T-47D breast = test system: T-47D breast
HCT-116 colon = test system: HCT-116 colon
SK-OV-3 ovarian = test system: SK-OV-3 ovarian
ACHN renal = test system: ACHN renal
NCI/ADR-RES ovarian = test system: NCI/ADR-RES ovarian

Row | SMILES | TGI (CAKI-1 renal) [µM] | TGI (NCI-H23 lung) [µM] | TGI (UACC-257 melanoma) [µM] | TGI (SW-620 colon) [µM] | TGI (RXF 393 renal) [µM] | TGI (T-47D breast) [µM] | TGI (HCT-116 colon) [µM] | TGI (SK-OV-3 ovarian) [µM] | TGI (ACHN renal) [µM] | TGI (NCI/ADR-RES ovarian) [µM] | GI50 (CAKI-1 renal) [µM] | GI50 (NCI-H23 lung) [µM] | GI50 (UACC-257 melanoma) [µM] | GI50 (SW-620 colon) [µM] | GI50 (RXF 393 renal) [µM] | GI50 (T-47D breast) [µM] | GI50 (HCT-116 colon) [µM] | GI50 (SK-OV-3 ovarian) [µM] | GI50 (ACHN renal) [µM] | GI50 (NCI/ADR-RES ovarian) [µM]
1 | OC(c1ccccc1)c1c(-c2ccccc2)[nH]c(-c2ccccc2)c1C(O)c1ccccc1 (stereo unspecified) | 6.75 | 16.5 | 8.61 | 29.1 | 10.3 | 40.4 | 8.83 | 47.2 | 11.9 | 8.02 | – | – | – | – | – | – | – | – | – | –
2 | CCCCCCCCCCCC1=NC(C)(C)CN1C(C)C | 14 | 11.3 | 6.02 | 3.87 | 5.33 | 8.73 | 10.4 | 20 | 15.7 | 13.4 | 2.68 | 2.98 | 2.49 | 1.85 | 2.17 | 2.9 | 2.83 | 7.51 | 4.15 | 3.63
3 | CCn1c(-c2nonc2N)nc2cnc(Oc3cccc(NC(=O)c4ccc(OCCN5CCOCC5)cc4)c3)cc21 | > 17.9 | > 25 | > 25 | > 25 | 12.9 | > 25 | > 25 | > 25 | > 25 | > 25 | 0.116 | 4.9 | 7.09 | 4.57 | 1.31 | 1.94 | 1.81 | 7.33 | 2.17 | 6.1
4 | COc1cccc2c1C(=O)c1c(O)c3c(c(O)c1C2=O)C[C@@](O)(/C(C)=N/NC(=O)c1cccc([N+](=O)[O-])c1)C[C@@H]3OC1CC(N)C(O)C(C)O1 (stereo partly specified) | 2.74 | 2.87 | 3.43 | 9.4 | 2.21 | 1.26 | 5.25 | 7.56 | 1.65 | 35.8 | 0.411 | 0.316 | 0.757 | 0.156 | 0.494 | 0.176 | 0.131 | 0.374 | 0.205 | 5.26
5 | COc1cccc(C2CC(C)(O)Oc3cc4c(cc32)OCO4)c1 (stereo unspecified) | > 100 | > 100 | > 100 | > 100 | > 100 | > 100 | 28.5 | 67.2 | > 100 | 59.3 | – | – | – | – | – | – | – | – | – | –
6 | C=CC(=O)N1CCN([C@@H](CC2CC2)c2ccc([C@H](C)Nc3ncc4c(n3)N(CC)C(=O)OC4)cc2)CC1 | 19 | – | 25.5 | 31.1 | 20.9 | 61.3 | 21.9 | 30.2 | 27.9 | > 100 | 5.23 | – | 10.9 | 14.2 | 4.62 | 14.8 | 7.67 | 14.5 | 14.5 | 21.5
7 | [Cu].c1ccc2c(c1)C1=NC2=NC2=NC(=NC3=NC(=NC4=NC(=N1)c1ccccc14)c1ccccc13)c1ccccc12 | > 100 | > 100 | > 100 | > 100 | > 100 | > 100 | > 100 | > 100 | > 100 | > 100 | > 100 | > 100 | > 100 | > 100 | > 100 | > 100 | > 100 | > 100 | > 100 | > 100
8 | COc1ccc2c(c1[N+](=O)[O-])CC[C@@H]1[C@@H]2CC[C@]2(C)C(=O)CC[C@@H]12 | > 1000 | > 1000 | > 1000 | > 1000 | > 927 | > 1000 | – | – | > 1000 | > 1000 | 660 | 679 | > 931 | > 1000 | 432 | 675 | > 1000 | 413 | 424 | 515
9 | CC(C)OC(=O)Nc1c([N+](=O)[O-])cc(C(F)(F)F)cc1[N+](=O)[O-] | > 100 | > 100 | > 100 | > 100 | 62.3 | > 100 | > 100 | > 100 | > 100 | > 100 | – | – | – | – | – | – | – | – | – | –
10 | Clc1ccc(NCNC2Nc3ccccc3N2)cc1Cl | > 100 | > 100 | > 100 | > 100 | > 100 | > 100 | > 100 | > 100 | > 100 | > 100 | – | – | – | – | – | – | – | – | – | –
11 | Cc1cc[c]([Sb]2[O]C(CO)C(C(O)C(O)C(=O)O)[O]2)cc1 (stereo unspecified) | > 100 | > 100 | – | > 100 | 84.7 | > 100 | > 100 | – | > 100 | > 100 | > 100 | > 100 | – | > 100 | 28.2 | > 100 | 33.7 | – | > 100 | > 100
12 | O=c1[nH]c(=O)n(Cc2ccc(C34CC5CC(CC(C5)C3)C4)c(O)c2)cc1F | 37.5 | 27.2 | – | 34.2 | 18.3 | 44.4 | 28.5 | 55.7 | 25.2 | 31.4 | 17.7 | 12.5 | – | 13.5 | 5.28 | 13.6 | 13.3 | 21 | 12.5 | 13
13 | CCCCCCCCCCCC(c1ccccc1)[N+](C)(C)C (stereo unspecified) | 26 | 5.86 | 2.98 | 3.86 | 2.26 | 9.79 | – | 6.09 | 26.1 | > 100 | 9.98 | 1 | 1.37 | 1.5 | 0.451 | 1.9 | – | 1.86 | 4.93 | > 100
14 | CCOC(=O)c1sc2nc(=S)[nH]c(NC(N)=S)c2c1C | 61.7 | 37.1 | 47.3 | 55.1 | 47.2 | 37 | – | 61.3 | 32.8 | 29.9 | 31.4 | 14.8 | 24.6 | 23.3 | 19.1 | 11.3 | – | 20.6 | 15.7 | 12.7
